Measured values taken from ChEMBL document CHEMBL5303304, “EUbOPEN Chemogenomics Library - IncuCyte” (2023).

Key:
Type in all cases: toxicity, cell-based
Fibroblast = experiment: Incucyte cell viability with human fibroblast; settings: 10 µM, compound concentration 10 uM
U2OS = experiment: Incucyte cell viability with U2OS; settings: human, 10 µM, compound concentration 10 uM
HEK-293T = experiment: Incucyte cell viability with HEK293T; settings: human, 10 µM, compound concentration 10 uM
Also: unitless GR value; below 1 slowed growth and below 0 cell loss.

SMILES | Growth Rate (Fibroblast; 6 h, replicate number 1) | Growth Rate (Fibroblast; 6 h, replicate number 2) | Growth Rate (Fibroblast; 12 h, replicate number 1) | Growth Rate (Fibroblast; 12 h, replicate number 2) | Growth Rate (Fibroblast; 18 h, replicate number 1) | Growth Rate (Fibroblast; 18 h, replicate number 2) | Growth Rate (Fibroblast; 24 h, replicate number 1) | Growth Rate (Fibroblast; 24 h, replicate number 2) | Growth Rate (U2OS; 0 h, replicate number 1) | Growth Rate (U2OS; 6 h, replicate number 1) | Growth Rate (U2OS; 12 h, replicate number 1) | Growth Rate (U2OS; 18 h, replicate number 1) | Growth Rate (U2OS; 24 h, replicate number 1) | Growth Rate (HEK-293T; 6 h, replicate number 2) | Growth Rate (HEK-293T; 12 h, replicate number 2) | Growth Rate (HEK-293T; 18 h, replicate number 1) | Growth Rate (HEK-293T; 24 h, replicate number 1) | Growth Rate (HEK-293T; 24 h, replicate number 2) | Growth Rate (HEK-293T; 6 h, replicate number 1) | Growth Rate (HEK-293T; 12 h, replicate number 1) | other results
CC(=O)Nc1c(F)cc(C(=O)N[C@H]2CC[C@H](O)CC2)cc1O[C@@H](C)c1ccccc1 [GSK046] | 0.63 | 0.19 | 0.75 | 0.74 | 0.6 | 0.93 | 0.71 | 1 | -0.56 | -0.86 | 0.72 | 0.79 | 0.83 | 0.69 | 0.74 | 0.95 | 0.71 | 0.83 | – | – | Growth Rate (Fibroblast; 0 h, replicate number 2): 0.44; Growth Rate (U2OS; 0 h, replicate number 2): 0.83; Growth Rate (U2OS; 6 h, replicate number 2): 0.86; Growth Rate (U2OS; 12 h, replicate number 2): 0.94; Growth Rate (U2OS; 18 h, replicate number 2): 0.97; Growth Rate (U2OS; 24 h, replicate number 2): 0.84; Growth Rate (HEK-293T; 0 h, replicate number 1): 0.58
Cc1c(CN2CCC3(CC2)CN(c2ncnc4sc(CC(F)(F)F)cc24)C3)ccc2c1cc(C#N)n2CC(N)=O | -0.45 | -0.88 | -0.4 | -0.34 | -0.16 | -0.22 | -0.05 | 0.09 | – | 1 | – | – | 0.94 | -0.05 | 0.34 | 0.63 | 0.69 | 0.47 | 0.58 | 0.59 | Growth Rate (Fibroblast; 0 h, replicate number 1): -1; Growth Rate (U2OS; 0 h, replicate number 2): 0.3; Growth Rate (HEK-293T; 18 h, replicate number 2): 0.44
CCS(=O)(=O)Nc1cccc(Oc2cncc(Nc3ccc(I)cc3F)c2C(N)=O)c1 | 0.99 | – | – | – | – | – | – | – | – | 0.71 | – | 0.92 | 0.84 | – | 0.71 | 0.77 | 0.74 | 0.69 | 0.77 | 0.82 | Growth Rate (U2OS; 6 h, replicate number 2): 0.62; Growth Rate (U2OS; 12 h, replicate number 2): 0.76; Growth Rate (U2OS; 24 h, replicate number 2): 0.98; Growth Rate (HEK-293T; 0 h, replicate number 1): 0.82; Growth Rate (HEK-293T; 18 h, replicate number 2): 0.58
COc1cc2nc(C)nc(NC3(c4ccccc4)CC3)c2cc1OC | 0.99 | 0.66 | 0.99 | 0.7 | – | – | – | – | – | 0.52 | 0.94 | 0.94 | 0.86 | – | – | 0.87 | 0.93 | – | – | – | Growth Rate (Fibroblast; 0 h, replicate number 2): 0.11; Growth Rate (U2OS; 12 h, replicate number 2): 0.97
O=C(O)CCCCN(CCc1ccccc1OCc1ccc(CCc2ccccc2)cc1)Cc1ccc(C(=O)O)cc1 | 0.92 | – | – | – | – | – | 0.98 | – | 0.14 | 0.32 | 0.91 | 0.83 | 0.86 | – | – | 0.87 | 0.99 | – | 0.91 | – | Growth Rate (Fibroblast; 0 h, replicate number 2): -0.44; Growth Rate (HEK-293T; 0 h, replicate number 1): 0.96; Growth Rate (HEK-293T; 0 h, replicate number 2): 0.47
CC(C)n1nc(-c2cnc(N)c(OC(F)(F)F)c2)cc1[C@H]1[C@@H]2CN(C3COC3)C[C@@H]21 | – | – | -0.97 | 0.78 | 0.08 | 0.91 | – | 0.95 | 0.6 | 0.76 | 0.92 | – | 0.84 | 0.62 | – | – | – | – | – | – | Growth Rate (Fibroblast; 0 h, replicate number 1): 0.52
Cc1c(C(=O)Nc2cccc(C(F)(F)F)c2)cc(-c2ccccc2)n1CCCN1CCOCC1.Cl | -0.95 | 0.1 | – | 0.65 | – | 0.73 | – | 0.84 | 0.27 | – | – | – | – | -0.54 | 0.01 | 0.32 | 0.46 | 0.37 | -0.17 | 0.11 | Growth Rate (U2OS; 12 h, replicate number 2): 0.89; Growth Rate (U2OS; 18 h, replicate number 2): 0.88; Growth Rate (U2OS; 24 h, replicate number 2): 0.95; Growth Rate (HEK-293T; 18 h, replicate number 2): 0.27
CC[C@H](CO)Nc1nc(Nc2cccc(-c3ccccn3)c2)c2ncn(C(C)C)c2n1.Cl.O | 0.1 | 0.21 | 0.05 | 0.28 | 0.33 | 0.45 | 0.45 | 0.49 | -0.98 | – | 0.96 | 0.92 | 0.76 | -0.77 | -0.31 | 0.07 | 0.16 | 0 | -0.37 | -0.07 | Growth Rate (Fibroblast; 0 h, replicate number 1): -0.64; Growth Rate (HEK-293T; 18 h, replicate number 2): -0.09
CCNc1ccc(-c2nn(-c3ccccc3C)c3c2C(C)Cc2nc(NC(=O)OC)sc2-3)cn1.O=C(O)C(F)(F)F (stereo unspecified) | -0.81 | -0.7 | -0.55 | -0.37 | -0.28 | -0.19 | -0.11 | -0.06 | -0.28 | 0.5 | 0.39 | 0.27 | -0.06 | 0.14 | -0.12 | -0.23 | -0.1 | -0.01 | -0.42 | -0.41 | Growth Rate (U2OS; 6 h, replicate number 2): 0.13; Growth Rate (U2OS; 12 h, replicate number 2): 0.24; Growth Rate (U2OS; 18 h, replicate number 2): 0.25; Growth Rate (U2OS; 24 h, replicate number 2): 0.07; Growth Rate (HEK-293T; 0 h, replicate number 2): -0.93; Growth Rate (HEK-293T; 18 h, replicate number 2): 0.03
Cn1c(=O)n(CCCO)c(=O)c2c1nc(Oc1cccc(OC(F)(F)F)c1)n2Cc1ccc(Cl)cc1 [ZERENCOTREP] | -0.36 | -0.98 | -1 | 0.88 | – | 0.6 | – | 0.54 | – | – | 0.8 | 0.88 | 0.94 | 0.64 | – | 0.98 | – | – | 0.54 | 0.92 | Growth Rate (U2OS; 0 h, replicate number 2): -0.21; Growth Rate (HEK-293T; 0 h, replicate number 1): 0.5; Growth Rate (HEK-293T; 0 h, replicate number 2): 0.33
